Test results as given in PubChem BioAssay AID1963864 (Molecular Pharmacology Branch, DTP, NCI, 2024).
Where “and” joins values, the source holds several entries; their conditions need not be identical. Equal entries are not always repeated.

System: KRAS PDC multicell spheroid viability
Assay: Anticancer human tumor 521955-158-R6-J3-PDC patient-derived pancreatic carcinoma cell line growth inhibition [KRAS2]
Details: for viability, T/C: stronger effect = lower value
Excerpt: Multicellular complex tumor spheroid response to RAS pathway inhibitors in combination with a targeted agents in patient-derived cell lines with oncogenic KRAS variants from multiple cancer types
A high-throughput screen of multi-cell type tumor spheroids was designed to identify active combinations of targeted small molecules and KRAS pathway inhibitors. Complex spheroids include a stromal component modeled by human endothelial cells (HUVEC) and fibroblasts modeled by human mesenchymal stem cells (MSCs). The concentration ranges selected for each drug and investigational agent were based upon clinically achievable concentrations if the clinical Cmax of the agent was known.
Compounds. The drugs and investigational agents: BI-3406 (NSC825286), BAY-293 (NSC824723), batoprotafib (TNO155; NSC825523), sotorasib (AMG 510; NSC818433), MRTX1257 (NSC819558), elimusertib (BAY 1895344; NSC800525), molibresib (GSK525762; NSC774829), temuterkib (LY3214996; NSC803410), venetoclax (NSC766270), alisertib (NSC759677), olaparib (NSC753686), talazoparib (NSC767125), erdafitinib (NSC781556), ipatasertib (NSC767898), cabozantinib (NSC761068), nintedanib (NSC756659), abemaciclib (NSC768073), docetaxel (NSC628503), trametinib (NSC758246), and sapanisertib (NSC764658) were obtained from the National Cancer Institute (NCI) Developmental Therapeutics Program Chemical Repository. The FDA-approved anticancer drug set is available from the Developmental Therapeutics Program. […] The stock solutions were prepared in dimethyl sulfoxide (DMSO, Sigma-Aldrich, St. Louis, MO, cat. D2650) at 800-fold the tested concentration and stored at -70 degrees C prior to their use. All drugs and investigational agents were tested over a range starting from a high concentration at or near the clinical Cmax and decreasing in half-log increments. If the clinical Cmax for an agent had not been determined, the highest concentration tested was 10 microM.
Cell Culture. All cells were maintained in an incubator at 37 degrees C and 5% CO2 with 95% humidity. The PDC lines were cultured according to standard operating procedures established by the NCI PDMR (https://pdmr.cancer.gov/sops/default.htm). Briefly, all PDCs were thawed and cultured in Matrigel-coated flasks prepared with a working solution of 1X Ham's F-12 nutrient mix, without supplementation (Invitrogen, Waltham, MA, cat. 11765054), 100 U/mL penicillin-streptomycin (Invitrogen, cat. 15140122), and 2.5% Matrigel (Corning Inc., Corning, NY, cat. 354248) for the first three passages. All PDCs were cultured in complete DMEM/F-12 media containing advanced DMEM/F-12 (Invitrogen, cat. 12634028), 4.9% defined fetal bovine serum, heat inactivated (HyClone Laboratories Inc., Logan, UT, cat. SH30070.03HI), 389 ng/mL hydrocortisone (Sigma-Aldrich, cat. H4001), 9.7 ng/mL human EGF recombinant protein (Invitrogen, cat. PHG0313), 23.4 microg/mL adenine (Sigma-Aldrich, cat. A2786), 97.3 U/mL penicillin-streptomycin (Invitrogen, cat. 15140122), 1.9 mM L-glutamine (Invitrogen, cat. 25030081), and 9.7 microM Y-27632 dihydrochloride (Tocris Bioscience, Bristol, United Kingdom, cat. 1254). The PDCs were cultured in complete DMEM/F12 media without 9.7 microM Y-27632 dihydrochloride for at least two passages prior to the screen. The established cell line HOP-62 was cultured in RPMI 1640 medium, HEPES (Invitrogen, cat. 22400105) with 10% defined fetal bovine serum (HyClone Laboratories Inc., cat. SH30070.03) and 2 mM L-glutamine (Invitrogen, cat. 25030081). The pooled donor HUVEC were cultured in endothelial cell growth medium 2 (PromoCell, Heidelberg, Germany, cat. C-22011) and the hMSC were cultured in mesenchymal stem cell growth medium 2 (PromoCell, cat. C-28009). For all experiments, HUVEC and hMSC were used at passages </=5, while the malignant cell lines were used at passages </=15. […]

[1] = compound alone, run of 08/19/2021
[2] = compound alone, run of 08/26/2021
[3] = compound alone, run of 09/02/2021
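Also: drug exposure lasted seven days.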
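For viability, T/C in this document: 100% = DMSO vehicle wells and lower means fewer viable cells.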

| Structure (SMILES) | viability, T/C (compound 0.1 µM) | viability, T/C (compound 0.316 µM) | IC50 [1] [µM] | IC50 [2] | IC50 [3] | viability, T/C (compound 0.0316 µM) | viability, T/C (compound 0.0001 µM) | viability, T/C (compound 0.000316 µM) | viability, T/C (compound 0.00316 µM) | viability, T/C (compound 0.01 µM) | viability, T/C (compound 1 µM) | viability, T/C (compound 3.16 µM) | IC50 (curve of compound) | viability, T/C (compound 10 µM) | viability, T/C (compound 0.001 µM) |
| --- | --- | --- | --- | --- | --- | --- | --- | --- | --- | --- | --- | --- | --- | --- | --- |
| C=CC(=O)N1CCN(c2nc(=O)n(-c3c(C)ccnc3C(C)C)c3nc(-c4c(O)cccc4F)c(F)cc23)C(C)C1 (stereo not drawn) | 94.8% [middle of 16 runs] | 97.2% [middle of 16 runs] | > 10 | > 10 µM | > 10 µM | – | – | – | – | – | – | – | – | – | – |
| C=CC(=O)N1CCN(c2nc(OCC3CCCN3C)nc3c2CCN(c2cccc4cccc(C)c24)C3)CC1CC#N (stereo not drawn) | 94.9% [middle of 16 runs] | – | – | – | 2.01 µM [middle of 5 runs] | 91.1% [middle of 16 runs] | – | – | – | – | – | – | – | – | – |
| CC(=O)Nc1cccc(-n2c(=O)n(C3CC3)c(=O)c3c(Nc4ccc(I)cc4F)n(C)c(=O)c(C)c32)c1 | – | – | – | – | – | 44% [middle of 5 runs] | 95.7% [middle of 5 runs] | 99.3% [middle of 5 runs] | 85.6% [middle of 5 runs] | 72.2% [middle of 5 runs] | – | – | – | – | – |
| CC(=O)OC12COC1CC(O)C1(C)C(=O)C(O)C3=C(C)C(OC(=O)C(O)C(NC(=O)OC(C)(C)C)c4ccccc4)CC(O)(C(OC(=O)c4ccccc4)C21)C3(C)C (stereo not drawn) | 73.6% [middle of 5 runs] | 86.8% [middle of 5 runs] | – | – | – | 77.4% [middle of 5 runs] | – | – | – | 87.1% [middle of 5 runs] | 101% [middle of 5 runs] | 119% [middle of 5 runs] | > 3.16 µM | – | – |
| CC(C)NCC(C(=O)N1CCN(c2ncnc3c2C(C)CC3O)CC1)c1ccc(Cl)cc1 (stereo not drawn) | 85.2% [middle of 5 runs] | 83.1% [middle of 5 runs] | – | – | – | 94.6% [middle of 5 runs] | – | – | – | – | 77% [middle of 5 runs] | 76.1% [middle of 5 runs] | > 10 µM | 70.1% [middle of 5 runs] | – |
| CC(C)n1nc(-c2ccc3oc(N)nc3c2)c2c(N)ncnc21 | 50.7% [middle of 5 runs] | – | – | – | – | 67.2% [middle of 5 runs] | – | 91.3% [middle of 5 runs] | 82.9% [middle of 5 runs] | 74.3% [middle of 5 runs] | – | – | > 0.1 µM and 0.0957 µM | – | 91.3% [middle of 5 runs] |
| CC1(C)CCC(CN2CCN(c3ccc(C(=O)NS(=O)(=O)c4ccc(NCC5CCOCC5)c([N+](=O)[O-])c4)c(Oc4cnc5[nH]ccc5c4)c3)CC2)=C(c2ccc(Cl)cc2)C1 | 96.3% [middle of 5 runs] | 90.6% [middle of 5 runs] | – | – | – | 96.5% [middle of 5 runs] | – | – | – | – | 97.9% [middle of 5 runs] | – | – | – | – |
| CC1COCCN1c1cc(-c2ccnn2C)c2ccnc(-c3ccn[nH]3)c2n1 (stereo not drawn) | 83.4% [middle of 5 runs] | 78.2% [middle of 5 runs] | – | – | – | 90.3% [middle of 5 runs] | – | – | – | 99.8% [middle of 5 runs] | 84.7% [middle of 5 runs] | 86.6% [middle of 5 runs] | > 3.16 µM | – | – |
| CC1OCC2(CCN(c3cnc(Sc4ccnc(N)c4Cl)c(N)n3)CC2)C1N (stereo not drawn) | – | 86.6% [middle of 19 runs] | > 10 | > 10 µM | > 10 µM | 97.6% [middle of 4 runs] | – | – | – | – | – | – | > 10 µM | – | – |
| CCN1CCN(Cc2ccc(Nc3ncc(F)c(-c4cc(F)c5nc(C)n(C(C)C)c5c4)n3)nc2)CC1 | 81.5% [middle of 5 runs] | 88.2% [middle of 5 runs] | – | – | – | 85.5% [middle of 5 runs] | – | – | 101% [middle of 5 runs] | 86.9% [middle of 5 runs] | 95.5% [middle of 5 runs] | – | > 1 µM | – | – |
| CCNC(=O)CC1N=C(c2ccc(Cl)cc2)c2cc(OC)ccc2-n2c(C)nnc21 (stereo not drawn) | 90.3% [middle of 5 runs] | 84.9% [middle of 5 runs] | – | – | – | 96.8% [middle of 5 runs] | – | – | – | – | – | 79.8% [middle of 5 runs] | > 10 µM | 79.4% [middle of 5 runs] | – |
| CN(C)C/C=C/C(=O)Nc1cc2c(Nc3ccc(F)c(Cl)c3)ncnc2cc1O[C@H]1CCOC1 | 63.5% [middle of 5 runs] | – | – | – | – | 62.6% [middle of 5 runs] | – | 93.6% [middle of 5 runs] | 81.6% [middle of 5 runs] | 68.3% [middle of 5 runs] | – | – | > 0.1 µM | – | 82.4% [middle of 5 runs] |
| CNCc1ccccc1-c1csc(C(C)Nc2nc(C)nc3cc(OC)c(OC)cc23)c1 (stereo not drawn) | 84.1% [middle of 16 runs] | 79% [middle of 16 runs] | – | 1.48 µM [middle of 5 runs] | 1.4 µM [middle of 5 runs] | – | – | – | – | – | – | – | – | 0.23% [middle of 15 runs] | – |
| COC(=O)c1ccc2c(C(=Nc3ccc(N(C)C(=O)CN4CCN(C)CC4)cc3)c3ccccc3)c(O)[nH]c2c1 | 109% [middle of 5 runs] | – | – | – | – | 96.5% [middle of 5 runs] | – | – | – | – | – | – | 3.54 µM [middle of 5 runs] | 0.34% [middle of 5 runs] | – |
| COc1cc(Nc2ncc3c(n2)-c2ccc(Cl)cc2C(c2c(F)cccc2OC)=NC3)ccc1C(=O)O | 90.8% [middle of 5 runs] | 96.9% [middle of 5 runs] | – | – | – | 93.8% [middle of 5 runs] | – | – | – | – | 90.7% [middle of 5 runs] | – | > 10 µM | – | – |
| COc1cc(OC)cc(N(CCNC(C)C)c2ccc3ncc(-c4cnn(C)c4)nc3c2)c1 | 96.3% [middle of 4 runs] | 96.1% [middle of 4 runs] | – | – | – | 96% [middle of 4 runs] | – | – | – | – | 94% [middle of 4 runs] | 110% [middle of 4 runs] | 5.96 µM [middle of 4 runs] | 7.96% [middle of 4 runs] | – |
| COc1cc2nc(C)nc(NC(C)c3cc(N)cc(C(F)(F)F)c3)c2cc1OC1CCOC1 (stereo not drawn) | 86.7% [middle of 17 runs] | 86.7% [middle of 17 runs] | – | 6.52 µM [middle of 5 runs] | – | – | – | – | – | – | – | – | – | – | – |
| COc1cc2nccc(Oc3ccc(NC(=O)C4(C(=O)Nc5ccc(F)cc5)CC4)cc3)c2cc1OC | – | 95.7% [middle of 5 runs] | – | – | – | – | – | – | – | – | – | – | > 10 µM | – | – |
| Cn1nccc1Nc1nccc(-c2cc3c(s2)C(C)(C)N(CCN2CCOCC2)C3=O)n1 | 112% and 98.5% | 123% and 98.7% | – | – | – | 109% and 83.6% | – | – | – | – | 105% and 91.8% | 85.4% and 76% | > 10 µM | 73.7% and 66.2% | – |
| Cn1ncnc1[C@H]1c2n[nH]c(=O)c3cc(F)cc(c23)N[C@@H]1c1ccc(F)cc1 | 89.8% [middle of 5 runs] | – | – | – | – | – | – | 91.8% [middle of 5 runs] | – | 104% [middle of 5 runs] | – | – | > 0.1 µM | – | 95.2% [middle of 5 runs] |
| O=C(c1cc(Cc2n[nH]c(=O)c3ccccc23)ccc1F)N1CCN(C(=O)C2CC2)CC1 | – | 86.2% [middle of 5 runs] | – | – | – | 89.9% [middle of 5 runs] | – | – | – | – | – | 78.3% [middle of 5 runs] | > 10 µM | – | – |
